In BindingDB's records for doi:10.1016/j.chembiol.2007.09.006 (University of Virginia At Charlottesville, 2007):

target: T1, Core-binding factor subunit beta (Homo sapiens, UniProt Q13951); assay: FRET Assay; settings: pH 7.5; 23 °C
T1 sequence (Q13951 whole entry): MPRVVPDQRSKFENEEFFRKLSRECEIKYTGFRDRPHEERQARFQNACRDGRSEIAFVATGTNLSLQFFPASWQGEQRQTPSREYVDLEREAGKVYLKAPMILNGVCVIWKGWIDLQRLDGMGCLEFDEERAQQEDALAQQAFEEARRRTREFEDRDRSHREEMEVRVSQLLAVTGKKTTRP
Experimental: Protein concentrations were determined by UV absorption at 433 nm for Cerulean-Runt and 513 nm for Venus-CBFbeta. […] Mean values of IC50 originating from two independent measurements performed in duplicate together with the standard deviations are reported.

**Q.** Which IC50 does the source give for `CCc1sc(N)nc1-c1ccc(OC)cc1` [thiazol-2-amine, 17] here?
**A.** 3.2 µM

**Q.** Which IC50 does the source give for `CCc1sc(N)nc1-c1cccc(C)c1` [thiazol-2-amine, 19] here?
**A.** 66 µM

**Q.** How did the IC50 turn out when `COc1ccc(-c2csc(N)n2)cc1OC` [thiazol-2-amine, 7] was run?
**A.** 40.5 µM

**Q.** `CCc1sc(N)nc1-c1ccccc1OC` [thiazol-2-amine, 20] was tested. Which IC50 did it give?
**A.** 17 µM

**Q.** `COc1cccc(-c2csc(N)n2)c1` [thiazol-2-amine, 11] was tested. Which IC50 did it give?
**A.** 61 µM

**Q.** Which IC50 does the source give for `COc1ccc(-c2csc(N)n2)cc1` [thiazol-2-amine, 6] here?
**A.** 18.5 µM

**Q.** `CCOc1ccc(-c2nc(N)sc2CC)cc1` [thiazol-2-amine, 21] was tested. Which IC50 did it give?
**A.** > 500 µM

**Q.** Which IC50 does the source give for `Nc1nc(-c2ccc3c(c2)OCO3)cs1` [thiazol-2-amine, 8] here?
**A.** 9 µM

**Q.** With `Nc1nc(-c2ccc(C(F)(F)F)cc2)cs1` [thiazol-2-amine, 5] as the compound, how does the IC50 read?
**A.** 9 µM

**Q.** `Nc1nc(-c2ccccc2Cl)cs1` [thiazol-2-amine, 14] was tested. Which IC50 did it give?
**A.** 1.1 µM

**Q.** `Nc1nc(-c2ccc(Cl)cc2Cl)cs1` [thiazol-2-amine, 16] was tested. Which IC50 did it give?
**A.** 49 µM

**Q.** `Nc1nc(-c2cccc(Cl)c2)cs1` [thiazol-2-amine, 9] was tested. Which IC50 did it give?
**A.** 12 µM

**Q.** How did the IC50 turn out when `Cc1cccc(-c2csc(N)n2)c1` [thiazol-2-amine, 10] was run?
**A.** 110 µM

**Q.** For `CCCc1sc(N)nc1-c1ccc(OC)cc1` [thiazol-2-amine, 18], which IC50 is on record?
**A.** 23.5 µM

**Q.** With `Cc1ccccc1-c1csc(N)n1` [thiazol-2-amine, 13] as the compound, how does the IC50 read?
**A.** 5 µM
